Results reported in patent publication US6479435B1, “Diaryl ethers and processes for their preparation and herbicidal and desiccant compositions containing them” (ISK Americas Incorporated, priority 1997, dated 2002).

Assays:
Format in all cases: in vivo
[1] = system: Johnsongrass (Sorghum halepense, SORHA); assay: Pre-emerge greenhouse herbicide test, phytotoxicity rating; conditions: 14 days after application, rating scale 0-100
Description: (§1) A standard greenhouse herbicide activity screening system was used to evaluate the herbicidal efficacy and crop safety of these test compounds. Six broadleaf weed species including redroot pigweed (Amaranthus retroflexus, AMARE), velvetleaf (Abutilon theophrasti, ABUTH), sicklepod (Cassia obtusifolia, CASOB), ivyleaf morningglory (Ipomoea hederacea, IPOHE), lambsquarters (Chenopodium album, CHEAL) and common ragweed (Ambrosia artemisiifolia L., AMBEL) were used as test species. Four grass weed species including green foxtail (Setaria viridis, SETVI), barnyardgrass (Echinochloa crusgalli, ECHCG), Johnsongrass (Sorghum halepense, SORHA), and large crabgrass (Digitaria sanguinalis, DIGSA) were also used. In addition, three crop species, field corn (Zea mays L., var. Dekalb 535, CORN), soybean (Glycine max L., var. Pella 86, SOY), and upland rice (Oryza sp., var.Tebonnet, RICE) were included.
(§2) All plants were grown in 10 cm square plastic pots which were filled with a sandy loam soil mix. For preemerge tests, seeds were planted one day prior to application of the test compounds. Immediately after application, test units of the pre-emerge applications were watered at the soil surface to incorporate the test materials. Subsequently, these test units were bottom-watered.
(§3) All test compounds were dissolved in acetone and applied to the test units in a volume of 187 l/ha. Test materials were applied at rates ranging from 125 g ai/ha to 1000 g ai/ha using a track sprayer equipped with a TJ8001E even flow flat fan spray nozzle. Plants were arranged on a shelf so that the top of the canopy (post-emerge) or top of the soil surface (pre-emerge) was 40-45 cm below the nozzle. Pressurized air was used to force the test solution through the nozzle as it was mechanically advanced (via electrically driven chain drive) over the top of all test plants/pots. This application simulates a typical commercial field herbicide application.
(§4) At 14 days after application of the test materials, phytotoxicity ratings were recorded. A rating scale of 0-100 was used as previously described in Research Methods in Weed Science, 2nd edition, B. Truelove, Ed., Southern Weed Science Society, Auburn University, Auburn, Ala., 1977. Briefly, “0” corresponds to no damage and “100” corresponds to complete death of all plants in the test unit. This scale was used both to determine efficacy against weed species and damage to crop species. Herbicide activity data for various compounds of this invention, which are shown by compound number in Tables 1-9, are shown in Tables 13 and 14.

[2] = system: barnyardgrass (Echinochloa crusgalli, ECHCG); assay: as above; conditions: 14 days after application, rating scale 0-100
Description: as §1, §2, §3, §4

[3] = system: green foxtail (Setaria viridis, SETVI); assay: as above; conditions: 14 days after application, rating scale 0-100
Description: as §1, §2, §3, §4

[4] = system: ivyleaf morningglory (Ipomoea hederacea, IPOHE); assay: as above; conditions: 14 days after application, rating scale 0-100
Description: as §1, §2, §3, §4

[5] = system: lambsquarters (Chenopodium album, CHEAL); assay: as above; conditions: 14 days after application, rating scale 0-100
Description: as §1, §2, §3, §4

[6] = system: large crabgrass (Digitaria sanguinalis, DIGSA); assay: as above; conditions: 14 days after application, rating scale 0-100
Description: as §1, §2, §3, §4

[7] = system: redroot pigweed (Amaranthus retroflexus, AMARE); assay: as above; conditions: 14 days after application, rating scale 0-100
Description: as §1, §2, §3, §4

[8] = system: sicklepod (Cassia obtusifolia, CASOB); assay: as above; conditions: 14 days after application, rating scale 0-100
Description: as §1, §2, §3, §4

[9] = system: velvetleaf (Abutilon theophrasti, ABUTH); assay: as above; conditions: 14 days after application, rating scale 0-100
Description: as §1, §2, §3, §4

[10] = system: field corn (Zea mays L., var. Dekalb 535, CORN); assay: Pre-emerge greenhouse test, crop damage rating; conditions: 14 days after application, rating scale 0-100
Description: as §1, §2, §3, §4

[11] = system: upland rice (Oryza sp., var.Tebonnet, RICE); assay: Pre-emerge greenhouse test, crop damage rating; conditions: 14 days after application, rating scale 0-100
Description: as §1, §2, §3, §4

[12] = system: soybean (Glycine max L., var. Pella 86, SOY); assay: Pre-emerge greenhouse test, crop damage rating; set-up: key to SOY crop damage rating: 0 = no damage, 100 = complete death of all plants; conditions: 14 days after application, rating scale 0-100
Description: as §1, §2, §3, §4

[13] = system: Johnsongrass (Sorghum halepense, SORHA); assay: Post-emerge greenhouse herbicide test, phytotoxicity rating; conditions: 14 days after application, scale 0-100
Description: as §1, §3
(§5) In the post-emerge test, a commercial non-ionic surfactant was also included (0.25% v/v) to enhance wetting of the leaf surfaces Qf target plants at rates ranging from 63 g ai/ha to 1000 g ai/ha. For post-emerge tests, seeds were planted 8-21 days prior to the test to allow emergence and good foliage development prior to application of the test substances. At the time of the post-emerge application, plants of all species were usually at the 2-3 leaf stage of development. Post-emerge test units were always bottom-watered.
as §4

[14] = system: barnyardgrass (Echinochloa crusgalli, ECHCG); assay: as above; conditions: 14 days after application, scale 0-100
Description: as §1, §3, §5, §4

[15] = system: green foxtail (Setaria viridis, SETVI); assay: as above; conditions: 14 days after application, scale 0-100
Description: as §1, §3, §5, §4

[16] = system: ivyleaf morningglory (Ipomoea hederacea, IPOHE); assay: as above; conditions: 14 days after application, scale 0-100
Description: as §1, §3, §5, §4

[17] = system: lambsquarters (Chenopodium album, CHEAL); assay: as above; conditions: 14 days after application, scale 0-100
Description: as §1, §3, §5, §4

[18] = system: large crabgrass (Digitaria sanguinalis, DIGSA); assay: as above; conditions: 14 days after application, scale 0-100
Description: as §1, §3, §5, §4

[19] = system: redroot pigweed (Amaranthus retroflexus, AMARE); assay: as above; conditions: 14 days after application, scale 0-100
Description: as §1, §3, §5, §4

[20] = system: sicklepod (Cassia obtusifolia, CASOB); assay: as above; conditions: 14 days after application, scale 0-100
Description: as §1, §3, §5, §4

[21] = system: velvetleaf (Abutilon theophrasti, ABUTH); assay: as above; conditions: 14 days after application, scale 0-100
Description: as §1, §3, §5, §4

[22] = system: field corn (Zea mays L., var. Dekalb 535, CORN); assay: Post-emerge greenhouse test, crop damage rating; conditions: 14 days after application, scale 0-100
Description: as §1, §3, §5, §4

[23] = system: upland rice (Oryza sp., var.Tebonnet, RICE); assay: Post-emerge greenhouse test, crop damage rating; conditions: 14 days after application, scale 0-100
Description: as §1, §3, §5, §4

[24] = system: soybean (Glycine max L., var. Pella 86, SOY); assay: Post-emerge greenhouse test, crop damage rating; set-up: key to crop damage rating SOY: 0-100 scale: 0 = no damage, 100 = complete death of all plants; conditions: 14 days after application, scale 0-100
Description: as §1, §3, §5, §4

Nn1c(C(F)(F)F)cc(=O)n(-c2cc(Oc3cccc(F)n3)c(Cl)cc2F)c1=O [Compound 9-4, 1-Amino-3-[4-chloro-2-fluora-5-(6-fluoro-2-pyridyloxy)phenyl]-6-trifluoromethyl-1,2,3,4-tetrahydropyrimidine-2,4-dione] was tested, and the SORHA phytotoxicity rating ([1]; Rate 125 g al/ha) was 99, the SORHA phytotoxicity rating ([1]; Rate 500 g al/ha) was 100 and the ECHCG phytotoxicity rating ([2]; Rate 125 g al/ha) was 100. For the same compound, the ECHCG phytotoxicity rating ([2]; Rate 500 g al/ha) was 100, the SETVI phytotoxicity rating ([3]; Rate 125 g al/ha) was 100 and the SETVI phytotoxicity rating ([3]; Rate 500 g al/ha) was 100. For the same compound, the IPOHE phytotoxicity rating ([4]; Rate 125 g al/ha) was 100, the IPOHE phytotoxicity rating ([4]; Rate 500 g al/ha) was 100 and the CHEAL phytotoxicity rating ([5]; Rate 125 g al/ha) was 100. For the same compound, the CHEAL phytotoxicity rating ([5]; Rate 500 g al/ha) was 100, the DIGSA phytotoxicity rating ([6]; Rate 125 g al/ha) was 100 and the DIGSA phytotoxicity rating ([6]; Rate 500 g al/ha) was 100. The AMARE phytotoxicity rating ([7]; Rate 125 g al/ha) was 100, the AMARE phytotoxicity rating ([7]; Rate 500 g al/ha) was 100 and the CASOB phytotoxicity rating ([8]; Rate 125 g al/ha) was 60. The CASOB phytotoxicity rating ([8]; Rate 500 g al/ha) was 100, the ABUTH phytotoxicity rating ([9]; Rate 125 g al/ha) was 100 and the ABUTH phytotoxicity rating ([9]; Rate 500 g al/ha) was 100. For the same compound, the “CORN crop damage rating” value ([10]; Rate 125 g al/ha) was 60, the “CORN crop damage rating” value ([10]; Rate 500 g al/ha) was 95 and the “RICE crop damage rating” value ([11]; Rate 125 g al/ha) was 40. For the same compound, the “RICE crop damage rating” value ([11]; Rate 500 g al/ha) was 99, the “SOY crop damage rating” value ([12]; Rate 125 g al/ha) was 80 and the “SOY crop damage rating” value ([12]; Rate 500 g al/ha) was 95. The “phytotoxicity rating SORHA” value ([13]; rate 63 g ai/ha) was 70, the “phytotoxicity rating SORHA” value ([13]; rate 500 g ai/ha) was 98 and the “phytotoxicity rating ECHCG” value ([14]; rate 63 g ai/ha) was 70. For the same compound, the “phytotoxicity rating ECHCG” value ([14]; rate 500 g ai/ha) was 100, the “phytotoxicity rating SETVI” value ([15]; rate 63 g ai/ha) was 30 and the “phytotoxicity rating SETVI” value ([15]; rate 500 g ai/ha) was 95. The “phytotoxicity rating IPOHE” value ([16]; rate 63 g ai/ha) was 100, the “phytotoxicity rating IPOHE” value ([16]; rate 500 g ai/ha) was 100 and the “phytotoxicity rating CHEAL” value ([17]; rate 63 g ai/ha) was 80. The “phytotoxicity rating CHEAL” value ([17]; rate 500 g ai/ha) was 100, the “phytotoxicity rating DIGSA” value ([18]; rate 63 g ai/ha) was 10 and the “phytotoxicity rating DIGSA” value ([18]; rate 500 g ai/ha) was 95. The “phytotoxicity rating AMARE” value ([19]; rate 63 g ai/ha) was 95, the “phytotoxicity rating AMARE” value ([19]; rate 500 g ai/ha) was 100 and the “phytotoxicity rating CASOB” value ([20]; rate 63 g ai/ha) was 90. The “phytotoxicity rating CASOB” value ([20]; rate 500 g ai/ha) was 100, the “phytotoxicity rating ABUTH” value ([21]; rate 63 g ai/ha) was 100 and the “phytotoxicity rating ABUTH” value ([21]; rate 500 g ai/ha) was 100. The “crop damage rating CORN” value ([22]; rate 63 g ai/ha) was 40, the “crop damage rating CORN” value ([22]; rate 500 g ai/ha) was 80 and the “crop damage rating RICE” value ([23]; rate 63 g ai/ha) was 50. For the same compound, the “crop damage rating RICE” value ([23]; rate 500 g ai/ha) was 70, the “crop damage rating SOY” value ([24]; rate 63 g ai/ha) was 95 and the “crop damage rating SOY” value ([24]; rate 500 g ai/ha) was 100.
